{"source": "patent US20100190747A1", "about": "“Fused ring compound and use thereof” (priority 2009, published 2010)"}
{"target": "T1, delta-5-desaturase (Rattus norvegicus, UniProt Q920R3)", "T1 construct": "the microsomal fraction of a rat river (10 μl), which had been diluted to 3 mg/ml; from tissue; host or cells: rat liver microsomal fraction", "T1 sequence (Q920R3 whole entry)": "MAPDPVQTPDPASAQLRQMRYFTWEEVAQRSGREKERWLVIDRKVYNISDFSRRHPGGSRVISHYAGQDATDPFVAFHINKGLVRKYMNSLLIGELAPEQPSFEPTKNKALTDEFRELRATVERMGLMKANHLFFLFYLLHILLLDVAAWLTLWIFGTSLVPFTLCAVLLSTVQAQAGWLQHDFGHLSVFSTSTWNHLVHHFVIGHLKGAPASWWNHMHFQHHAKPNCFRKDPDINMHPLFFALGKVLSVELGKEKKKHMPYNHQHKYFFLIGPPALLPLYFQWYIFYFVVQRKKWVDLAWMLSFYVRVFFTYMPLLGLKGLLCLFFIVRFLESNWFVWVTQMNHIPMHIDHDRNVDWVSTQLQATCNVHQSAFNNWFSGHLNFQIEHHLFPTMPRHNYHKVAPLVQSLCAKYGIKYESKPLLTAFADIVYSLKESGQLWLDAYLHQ", "assay": "Inhibitory activity on delta-5-desaturase (rat liver microsomal fraction, 14C-eicosatrienoic acid, TLC)", "type": "biochemical", "details": "test compound at 10 μM, room temperature, 120 minutes", "description": "An inhibitory activity of a test compound on delta-5-desaturase was measured according to the method described herein below. To a DMSO solution of the test compound which had been previously prepared, secondary dilution was carried out by using a buffer (300 mM NaH2PO4 [pH 7.4], 450 mM KCl, 30 mM NaF, 9 mM MgCl2, 4.5 mM glutathione [reduced form], 0.3% BSA [fatty acid free, SIGMA]). This diluent compound (10 μl) was added in a 96-well deep well block made of polypropylene, and then the microsomal fraction of a rat river (10 μl), which had been diluted to 3 mg/ml by using a microsome buffer (10 mM Tris-HCl [pH 7.4], 1 mM EDTA, and 250 mM sucrose), was added thereto. The enzyme reaction was initiated by adding 10 μl of 9 mM NADH, 9 mM ATP, 0.9 mM CoA and 10 μCi/ml (8E,11E,14E)-(1-^14C)eicosa-8,11,14-trienoic acid (PerkinElmer Inc.). The enzyme reaction was carried out at room temperature for 120 minutes, and then terminated by addition of 2.5 M NaOH (10 μl). Upon the completion of the reaction, the plate was covered with plate seal and incubated overnight in a dry heater of which temperature was set at 55° C. for saponification. Based on Bligh & Dyer method which had been described in a known document, Canadian Journal of Biochemistry and Physiology (Can. J. Biochem. Physiol.), Vol. 37, page 911, 1959), the solvent extraction of fatty acid was carried out by adding 200 μl of formic acid:methanol:chloroform (1:6:3), keeping the mixture as a single layer for a while, stirring the mixture to a sufficient level, and adding 120 μl of pure water to separate the mixture into two layers. 10 μl of the bottom chloroform layer was spotted on a reverse phase TLC plate (RP-18, 1154230001, Merck Japan, Ltd.) and then developed with acetonitrile:pure water:acetic acid (95:4.5:0.5). The TLC plate obtained after drying was transferred to an Imaging Plate (Fuji Photo Film Co., Ltd.) for more than 5 hours. Detection was carried out by using BAS-5000 (Fuji Photo Film Co., Ltd.). Numerization of thus-obtained image was carried out by using Multi Gauge Ver 2.3 (Fuji Photo Film Co., Ltd.) and an inhibitory ratio (%) of the test compound at 10 μM on delta-5-desaturase was obtained.", "units": {"inhibition at 10 µM": "%"}}
{"smiles": "O=C(CCCSc1nc2cc[nH]c2c(=O)n1-c1ccc(OCC(F)(F)F)cc1)N1CCCC1", "note": "[Example 110, 2-[(4-Oxo-4-pyrrolidin-1-ylbutyl)sulfanyl]-3-[4-(2,2,2-trifluoroethoxy)phenyl]-3,5-dihydro-4H-pyrrolo[3,2-d]pyrimidin-4-one]", "inhibition at 10 µM": 102}
{"smiles": "O=c1c2cc[nH]c2nc(OCC(F)F)n1-c1ccc(OCC(F)(F)F)cc1", "note": "[Example 244, 2-(2,2-Difluoroethoxy)-3-[4-(2,2,2-trifluoroethoxy)phenyl]-3,7-dihydro-4H-pyrrolo[2,3-d]pyrimidin-4-one]", "inhibition at 10 µM": 101}
{"smiles": "CCOc1nc2c(c(=O)n1-c1ccc(OCC(F)(F)C(F)(F)F)cc1)CC(=O)N2", "note": "[Example 277, 2-Ethoxy-3-[4-(2,2,3,3,3-pentafluoropropoxy)phenyl]-5,7-dihydro-3H-pyrrolo[2,3-d]pyrimidine-4,6-dione]", "inhibition at 10 µM": 94}
{"smiles": "CC(CCSc1nc2cc[nH]c2c(=O)n1-c1ccc(OCC(F)(F)F)cc1)C(=O)NCCC#N", "note": "(stereo not shown) [Example 85, N-(2-cyanoethyl)-2-methyl-4-({4-oxo-3-[4-(2,2,2-trifluoroethoxy)phenyl]-4,5-dihydro-3H-pyrrolo[3,2-d]pyrimidin-2-yl)sulfanyl)butanamide]", "inhibition at 10 µM": 99}
{"smiles": "CCC(CC)Sc1nc2c(c(=O)n1-c1ccc(OCC(F)(F)F)cc1)CC(=O)N2", "note": "[Example 340, 2-[(1-Ethylpropyl)sulfanyl]-3-[4-(2,2,2-trifluoroethoxy)phenyl]-5,7-dihydro-3H-pyrrolo[2,3-d]pyrimidine-4,6-dione]", "inhibition at 10 µM": 101}
{"smiles": "N#CCCCCCSc1nc2cc[nH]c2c(=O)n1-c1ccc(OCC(F)(F)F)cc1", "note": "[Example 88, 6-({4-Oxo-3-[4-(2,2,2-trifluoroethoxy)phenyl]-4,5-dihydro-3H-pyrrolo[3,2-d]pyrimidin-2-yl}sulfanyl)hexanenitrile]", "inhibition at 10 µM": 100}
{"smiles": "N#CCCNC(=O)CCCSc1nc2[nH]ccc2c(=O)n1-c1ccc(OCCCC(F)(F)F)cc1", "note": "[Example 186, N-(2-cyanoethyl)-4-({4-oxo-3-[4-(4,4,4-trifluorobutoxy)phenyl]-4,7-dihydro-3H-pyrrolo[2,3-d]pyrimidin-2-yl}sulfanyl)butanamide]", "inhibition at 10 µM": 100}
{"smiles": "CCOc1ccc(-n2c(SCCCC(=O)N(C)CCC#N)nc3cc[nH]c3c2=O)cc1", "note": "[Example 66, N-(2-cyanoethyl)-4-{[3-(4-ethoxyphenyl)-4-oxo-4,5-dihydro-3H-pyrrolo[3,2-d]pyrimidin-2-yl]sulfanyl}-N-methylbutanamide]", "inhibition at 10 µM": 101}
{"smiles": "N#CCCNC(=O)CCCSc1nc2[nH]ccc2c(=O)n1-c1ccc(OCC2CCC2)cc1", "note": "[Example 183, N-(2-cyanoethyl)-4-({3-[4-(cyclobutylmethoxy)phenyl]-4-oxo-4,7-dihydro-3H-pyrrolo[2,3-d]pyrimidin-2-yl}sulfanyl)butanamide]", "inhibition at 10 µM": 99}
{"smiles": "CCOc1ccc(-n2c(SCCCS(=O)(=O)NCCC#N)nc3cc[nH]c3c2=O)cc1", "note": "[Example 62, N-(2-cyanoethyl)-3-{[3-(4-ethoxyphenyl)-4-oxo-4,5-dihydro-3H-pyrrolo[3,2-d]pyrimidin-2-yl]sulfanyl}propane-1-sulfonamide]", "inhibition at 10 µM": 102}
{"smiles": "CCSc1nc2cc[nH]c2c(=O)n1-c1ccc(OCC(F)(F)F)cc1", "note": "[Example 104, 2-(Ethylsulfanyl)-3-[4-(2,2,2-trifluoroethoxy)phenyl]-3,5-dihydro-4H-pyrrolo[3,2-d]pyrimidin-4-one]", "inhibition at 10 µM": 100}
{"smiles": "CCSc1nc2c(c(=O)n1-c1ccc(OCC3CC3)cc1)CC(=O)N2", "note": "[Example 300, 3-[4-(Cyclopropylmethoxy)phenyl]-2-(ethylsulfanyl)-5,7-dihydro-3H-pyrrolo[2,3-d]pyrimidine-4,6-dione]", "inhibition at 10 µM": 101}
{"smiles": "CCOc1ccc(-n2c(SCC(=O)NCCC#N)nc3[nH]ccc3c2=O)cc1", "note": "[Example 173, N-(2-cyanoethyl)-2-{[3-(4-ethoxyphenyl)-4-oxo-4,7-dihydro-3H-pyrrolo[2,3-d]pyrimidin-2-yl]sulfanyl}acetamide]", "inhibition at 10 µM": 97}
{"smiles": "O=c1c2[nH]ccc2nc(SCCCS(=O)(=O)NC2CC2)n1-c1ccc(OCC(F)(F)F)cc1", "note": "[Example 108, N-cyclopropyl-3-({4-oxo-3-[4-(2,2,2-trifluoroethoxy)phenyl]-4,5-dihydro-3H-pyrrolo[3,2-d]pyrimidin-2-yl}sulfanyl)propane-1-sulfonamide]", "inhibition at 10 µM": 101}
{"smiles": "CCn1ccc2c(=O)n(-c3ccc(OCC(F)(F)F)cc3)c(SCCCC(=O)NCCC#N)nc21", "note": "[Example 193]", "inhibition at 10 µM": 100}
{"smiles": "CCc1c[nH]c2c(=O)n(-c3ccc(OCC(F)(F)F)cc3)c(SCCCC(=O)NCCC#N)nc12", "note": "[Example 171, N-(2-cyanoethyl)-4-({7-ethyl-4-oxo-3-[4-(2,2,2-trifluoroethoxy)phenyl]-4,5-dihydro-3H-pyrrolo[3,2-d]pyrimidin-2-yl}sulfanyl)butanamide]", "inhibition at 10 µM": 98}
{"smiles": "O=c1c2cc[nH]c2nc(OCC(F)(F)F)n1-c1ccc(OCC(F)(F)F)c(F)c1", "note": "[Example 264, 3-[3-Fluoro-4-(2,2,2-trifluoroethoxy)phenyl]-2-(2,2,2-trifluoroethoxy)-3,7-dihydro-4H-pyrrolo[2,3-d]pyrimidin-4-one]", "inhibition at 10 µM": 101}
{"smiles": "CC1(COc2ccc(-n3c(SCCCC(=O)NCCC#N)nc4[nH]ccc4c3=O)cc2)CC1", "note": "[Example 188, N-(2-cyanoethyl)-4-[(3-{4-[(1-methylcyclopropyl)methoxy]phenyl}-4-oxo-4,7-dihydro-3H-pyrrolo[2,3-d]pyrimidin-2-yl)sulfanyl]butanamide]", "inhibition at 10 µM": 98}
{"smiles": "Cn1ccc2c(=O)n(-c3ccc(OCC(F)(F)F)cc3)c(SCCCC(=O)NCCC#N)nc21", "note": "[Example 195]", "inhibition at 10 µM": 101}
{"smiles": "O=C1Cc2c(nc(Sc3ccc(F)cc3)n(-c3ccc(OCC(F)(F)F)cc3)c2=O)N1", "note": "[Example 336, 2-[(4-Fluorophenyl)sulfanyl]-3-[4-(2,2,2-trifluoroethoxy)phenyl]-5,7-dihydro-3H-pyrrolo[2,3-d]pyrimidine-4,6-dione]", "inhibition at 10 µM": 101}
{"smiles": "CCOCCOCCSc1nc2cc[nH]c2c(=O)n1-c1ccc(OCC2CC2)cc1", "note": "[Example 142, 3-[4-(Cyclopropylmethoxy)phenyl]-2-{[2-(2-ethoxyethoxy)ethyl]sulfanyl}-3,5-dihydro-4H-pyrrolo[3,2-d]pyrimidin-4-one]", "inhibition at 10 µM": 98}
{"smiles": "O=c1c2[nH]ccc2nc(SCCCS(=O)(=O)N2CCOCC2)n1-c1ccc(OCC(F)(F)F)cc1", "note": "[Example 106, 2-{[3-(Morpholin-4-ylsulfonyl)propyl]sulfanyl}-3-[4-(2,2,2-trifluoroethoxy)phenyl]-3,5-dihydro-4H-pyrrolo[3,2-d]pyrimidin-4-one]", "inhibition at 10 µM": 102}
{"smiles": "CCSc1nc2[nH]c(Cl)cc2c(=O)n1-c1ccc(OCC(F)(F)F)cc1", "note": "[Example 231, 6-Chloro-2-(ethylsulfanyl)-3-[4-(2,2,2-trifluoroethoxy)phenyl]-3,7-dihydro-4H-pyrrolo[2,3-d]pyrimidin-4-one]", "inhibition at 10 µM": 101}
{"smiles": "CCOCCSc1nc2cc[nH]c2c(=O)n1-c1ccc(OCC2CC2)cc1", "note": "[Example 143, 3-[4-(Cyclopropylmethoxy)phenyl]-2-[(2-ethoxyethyl)sulfanyl]-3,5-dihydro-4H-pyrrolo[3,2-d]pyrimidin-4-one]", "inhibition at 10 µM": 101}
{"smiles": "CC(C)Sc1nc2c(c(=O)n1-c1ccc(OCC(F)(F)F)cc1)CC(=O)N2", "note": "[Example 285, 2-[(1-Methylethyl)sulfanyl]-3-[4-(2,2,2-trifluoroethoxy)phenyl]-5,7-dihydro-3H-pyrrolo[2,3-d]pyrimidine-4,6-dione]", "inhibition at 10 µM": 96}
